The values that follow come from US10646501B2, “Reducing the reproductive capacity of mammals” (priority 2012, dated 2020).

In series [1] the test system is rat pup ovaries (ovarian follicles). Briefly: in vitro ovarian culture bioassay of follicle depletion (ovaries cultured 8 days, histology, follicle counts). It is filed as cell-based. Also on record: key to Biological activity (ranking, follicle depletion): 1—least chemical reactivity/biological activity; 6—most chemical reactivity/biological activity. To be noted: for follicle depletion, diepoxide combined with Triptolide / Biological activity (ranking, follicle depletion): diepoxide 30 μM + Trip 5 nM; for Biological activity (ranking, follicle depletion): rank 1 to 6. The text has this: The biological activity of the epoxides can be evaluated in an in vitro bioassay using rat pup ovaries based on method reported in “Characterization of a rat in vitro ovarian culture system to study the ovarian toxicant 4-vinylcyclohexene diepoxide.” Devine et. al. 2002, Taxicol. Appl. Pharmacol. 184, 107-115, incorporated herein by reference. Biological activity can be determined by follicle counts in ovarian sections after week long culture with micro molar concentrations of the epoxide. In general, biologically active epoxides will also be chemically active as well but not vice versa.
FIGS. 3A, 3B and 3C illustrate an in vitro culture system for evaluating the efficacy of follicle-depletion compositions (developed by Patrick J. Devine). As set forth in the various examples herein, ovaries are cultured with VCD with or without triptolide in serum-free media for 8 days, no gonadotropins present, no media changes and active ingredients added just once at start of culture. Ovaries are collected and processed for histology to perform follicle counting.
In vitro bioassay of follicle depletion, ovaries cultured for 8 days with different chemicals
Control—no chemicals, Triptolide—5 nM (Trip), Diepoxides. RDE, CHDE, Quetol, ERL 4221, BDE, GDE, each at 30 μM+Trip 5 nM
Ovaries were prepared for histological analysis for determination of follicle depletion

Series [2] can be described thus: epoxide assay of chemical reactivity (alkylating assay using 4-(p-nitrobenzyl) pyridine). The series is classed as physicochemical. Also on record: key to Chemical reactivity (ranking): 1—least chemical reactivity/biological activity; 6—most chemical reactivity/biological activity. To be noted: for Chemical reactivity (ranking): reactivity in epoxide assay, rank 1 to 6. The text has this:
The chemical reactivity of the epoxides can determined in an alkylating assay using 4-(p-nitrobenzyl) pyridine (NBP) based on the method reported in “Detection of epoxides with 4-(p-nitrobenzyl) pyridine.” Agarwal et. al. 1979, Bull. Environm. Contam. Toxicol. 23, 825-829, incorporated herein by reference.
Compared chemical (reactivity in epoxide assay) to biological activity (follicle depletion)

The subject of series [3] is male rat fertility. To be noted: oral exposure; cited from earlier work.
Series [4] concerns ovarian failure. Kind of series: VCD alone as the only active ingredient, premature ovarian failure. To be noted: low concentrations or short exposure durations <15 days. The series is classed as in vivo. The text has this:
Premature ovarian failure is when no more ovulations occur in spite of eggs/follicles being present in an ovary. For compositions and methods to function as a means of population control, the ovarian failure desirably occurs rapidly, for example within 10 days of treatment for rodents.

The subject of series [5] is Sprague Dawley rats (Rattus norvegicus). To be noted: via gavage; cited from earlier work.
[6] abbreviates: 30 μm VCD alone, cultured ovary, 8 days.

SMILES strings stand for the structures.

With `C(CCOCC1CO1)COCC1CO1` (centres unmarked) [BDE, 1,4-butanediol diglycidyl ether], in series [1] (ovaries cultured 8 days), the “follicle depletion, diepoxide combined with Triptolide” value (shortened to “follicle depletion … with Triptolide”) is reported as “caused significant follicle depletion” and the “Biological activity (ranking, follicle depletion)” value was found to be 3. In series [2], the “Chemical reactivity (ranking)” value came to 6.
As to `C1CC(COCC2CO2)CCC1COCC1CO1` (centres unmarked) [CHDE, 1,4-cyclohexanedimethanol diglycidyl ether], in series [1] (ovaries cultured 8 days), the “follicle depletion … with Triptolide” value is given as “caused significant follicle depletion” and the “Biological activity (ranking, follicle depletion)” value is 4. In addition, the “Chemical reactivity (ranking)” value in series [2] was 3.
Regarding `O=C(OCC1CCC2OC2C1)C1CCC2OC2C1` (centres unmarked) [ERL 4221, 3,4-epoxy-cyclohexyl-methyl-3,4-epoxycyclohexyl carboxylate], in series [1] (ovaries cultured 8 days), the “follicle depletion … with Triptolide” value is reported as “caused significant follicle depletion” and the “Biological activity (ranking, follicle depletion)” value worked out at 6. Also, the “biological activity in words” value in series [1] (when combined with Trip, among the six diepoxides) is on record as “most biologically active”. The “chemical reactivity in words” value in series [2] (among the six diepoxides) is recorded as “least chemically reactive”. For the same compound, the “Chemical reactivity (ranking)” value in series [2] is listed as 1.
Regarding `OCC(COCC1CO1)OCC1CO1` (centres unmarked) [GDE, glycerol diglycidyl ether], in series [1] (ovaries cultured 8 days), the “follicle depletion … with Triptolide” value is on record as “caused significant follicle depletion” and the “Biological activity (ranking, follicle depletion)” value worked out at 2. Moreover, the “Chemical reactivity (ranking)” value in series [2] turned out to be 5.
For `C(COCC1CO1)OCC1CO1` (centres unmarked) [Quetol, ethylene glycol diglycidyl ether] the same measures were “caused significant follicle depletion”, 5 and 2.
For `Oc1cccc(OCC2CO2)c1` (centres unmarked) [RDE, resorcinol glycidyl ether] the same measures were “did not cause significant follicle depletion”, 1 and 4.
Take `CC(C)[C@]12O[C@H]1[C@@H]1O[C@]13[C@]1(O[C@H]1C[C@H]1C4=C(CC[C@@]13C)C(=O)OC4)[C@@H]2O` [Triptolide, triptolide]: the “effect on male rat fertility” value in series [3] is given as “compromise male rat fertility to ultimate sterility”. Also, the “follicle depletion, triptolide alone” value in series [1] (Triptolide 5 nM alone, ovaries cultured 8 days) is “did not cause significant follicle depletion”.
For `C1CC2OC2CC1C1CO1` (centres unmarked) [VCD, 4-vinylcyclohexene diepoxide], in series [1] (setting [6]), the “effect on the other stages of follicles” value was “not significantly affected” and the “reduction in primordial follicles” value worked out at 38%. In addition, in series [4], the premature ovarian failure entry is recorded as “did not cause premature ovarian failure”. In addition, the primordial follicle depletion result in series [5] is on record as “efficacious to cause non-regenerating primordial follicle depletion”.
